US11518742B2 (priority 2020, dated 2022)

Key:
[1] = Solid form characterisation of 5MeODMT benzoate lots (XRPD, DSC, TGA, 1H NMR)
ovine nasal epithelium = assay: Permeation through ovine nasal epithelium; type: in vitro ADME; conditions: for Cumulative amount (μg/cm^2): […] dosing solution in water, mean, n=5; for Permeation compared with the hydrochloride salt: across ovine nasal epithelium
Excerpt: The use of ovine nasal epithelium to study nasal drug absorption is a technique which is well known to the person skilled in the art.

[2] = Dynamic Vapour Sorption (DVS); type: physicochemical
Method: A modified DVS isotherm of lot 20/45/006-FP (the same crystalline version) was undertaken to examine material behaviour from 60% RH and above. […] This is to obtain in-depth profiling of the material towards humidity at these elevated levels.
Temperature and humidity are important factors in the processing and storage of pharmaceuticals. DVS provides a versatile and sensitive technique for evaluating the stability of pharmaceutical formulations.
The solution was clarified into a 500 ml round bottom flask, the round bottom flask was rotated in an acetone/dry ice bath to freeze the solution in a thin layer around the flask. The ice was sublimed in vacuo at ambient temperature affording a fluffy white solid. The solid was removed from the round bottom flask and transferred to the DVS instrument. During this transfer, the solid collapsed to a sticky gum.
The sample was examined by DVS from 40% RH and cycled between 0% RH and 90% RH twice.
XRPD was collected on a portion of the sample post-lyophoilisation and post-DVS examination.

[3] = system: Slugs (Arion lusitanicus); type: in vivo; conditions: Example 8; for Total MP (% body weight): Concentration (w/v) 10%
Excerpt: The Slug Mucosal Irritation (SMI) assay was initially developed at the Laboratory of Pharmaceutical Technology (UGent) to predict the mucosal irritation potency of pharmaceutical formulations and ingredients. The test utilizes the terrestrial slug Arion lusitanicus. The body wall of the slugs is a mucosal surface composed of different layers.
The outer single-layered columnar epithelium that contains cells with cilia, cells with micro-villi and mucus secreting cells covers the subepithelial connective tissue. Slugs that are placed on an irritating substance will produce mucus. Additionally tissue damage can be induced which results in the release of proteins and enzymes from the mucosal surface. […] A classification prediction model that distinguishes between irritation (mucus production) and tissue damage (release of proteins and enzymes) has been developed. […] A 5% shampoo dilution or artificial tears were instilled in the eye and the discomfort was scored by the participants on a 5 point scale during several time points up to 30 min after instillation. The same shampoos were tested in the SMI assay using the Stinging, Itching and Burning (SIB) protocol.
The purpose of this assay was to assess the stinging, itching or burning potential of the test item(s) defined below. Using the objective values obtained for the mucus production the stinging, itching or burning potential of the test item(s) can be estimated by means of the prediction model that is composed of four categories (no, mild, moderate and severe).
Test System: Slugs (Arion lusitanicus); 3 slugs per treatment group. The parental slugs of Arion lusitanicus collected in local gardens along Gent and Aalter (Belgium) are bred in the laboratory in an acclimatized room (18-20° C.). The slugs are housed in plastic containers and fed with lettuce, cucumber, carrots and commercial dog food.
Test Design: A single study was performed.
Slugs weighing between 3 and 6 g were isolated from the cultures two days before the start of an experiment. The body wall was inspected carefully for evidence of macroscopic injuries. […] The slugs were placed in a plastic box lined with paper towel moistened with PBS and were kept at 18-20° C. Daily the body wall of the slugs was wetted with 300 μl PBS using a micropipette.
An overview of this can be seen in FIG. 4.
The mucus production was expressed as % of the body weight.
Based on the endpoint of the SMI assay the stinging, itching or burning potency of the test item(s) was estimated using a classification prediction model.
The evaluation of the test results was based upon the total amount of mucus production during 3 repeated contact periods with the test item.
For each slug, the mucus production was expressed in % of the body weight by dividing the weight of the mucus produced during each contact period by the body weight of the slug before the start of that contact period. The total mucus was calculated for each slug and then the mean per treatment group was calculated. The classification prediction model shown in Table 1 was used to classify the compounds.

[4] = Controlled cooling crystallisation: solubility in minimal solvent at 50 °C; type: physicochemical; conditions: 50° C.
Method: (detailed in the Table below). The solutions were clarified through a 0.45 μm Teflon syringe filter into pre-heated crystallisation tubes and cooled from 50° C. to −10° C. over 60 hours (1° C. Hr-1 cooling rate) and held at −10° C. for 50 hours (no agitation).
Solutions were clarified into crystallisation tubes at 50° C. and were cooled to −10° C. at a rate of 10° C.·hr-1, then equilibrated at −10° C. for 12 hours, then agitated at −10° C. at 400 rpm for 30 minutes which afforded a mobile suspension for all samples except Sample I which remained a solution. Further equilibration with agitation at −10° C. at 400 rpm for 3 hours afforded a thin suspension. All samples were isolated via isolute cartridge and air dried for 5 minutes before characterisation.

[5] = Stability of solid forms (Patterns A, B, C) open to atmosphere and in vacuo at 50 °C, by XRPD; type: physicochemical
Method: XRPD was performed regularly. DSC and 1H NMR spectroscopy were performed on samples where significant differences to the diffraction patterns were observed.

[6] = Generation of amorphous 5MeODMT benzoate and conversion on standing (XRPD, DSC); type: physicochemical; conditions: on standing / all conditions studied
Method: The flask was transferred to a vacuum and equilibrated to ambient temperature affording a fluffy white solid, 21-01-051 C.
The solid transformed into gum over ca. 1 hour. The sample was analysed immediately and after 20 hours held in a sealed container.

In the case of `COc1ccc2[nH]cc(CCN(C)C)c2c1.O=C(O)c1ccccc1`, the Crystalline character ([1]; predominantly Pattern E lots) is reported as “Pattern E”.
For `COc1ccc2[nH]cc(CCN(C)C)c2c1.Cl` [5MeODMT HCl, 5MeODMT hydrochloride], the “Cumulative amount (μg/cm^2)” value (ovine nasal epithelium; Time 0.0 min) was 0.00 μg/cm^2, the “Cumulative amount (μg/cm^2)” value (ovine nasal epithelium; Time 10.0 min) was 0.33 μg/cm^2 and the “Cumulative amount (μg/cm^2)” value (ovine nasal epithelium; Time 20.0 min) was 3.30 μg/cm^2. The “Cumulative amount (μg/cm^2)” value (ovine nasal epithelium; Time 30.0 min) was 8.26 μg/cm^2, the “Cumulative amount (μg/cm^2)” value (ovine nasal epithelium; Time 40.0 min) was 13.33 μg/cm^2 and the “Cumulative amount (μg/cm^2)” value (ovine nasal epithelium; Time 50.0 min) was 18.77 μg/cm^2. The “Cumulative amount (μg/cm^2)” value (ovine nasal epithelium; Time 60.0 min) was 23.43 μg/cm^2, the “Cumulative amount (μg/cm^2)” value (ovine nasal epithelium; Time 75.0 min) was 29.52 μg/cm^2 and the “State of material upon completion of the DVS cycle” value ([2]; lot 20/20/126-FP) was “completed deliquesced”. For the same compound, the Moisture uptake ([2]; lot 20/20/126-FP, 0-70% RH) was “less than 0.3 % w/w”, the Moisture uptake ([2]; lot 20/20/126-FP, 70-80% RH, first sorption cycle) was “Approximately 23 % w/w” and the “Retained mass above the minimum mass recorded at 0% RH” value ([2]; lot 20/20/126-FP, subsequent cycles) was 6-9 % w/w. The Further moisture uptake ([2]; lot 20/20/126-FP, up to and when held at 90% RH) was 20 % w/w, the Moisture increase ([2]; lot 20/45/006-FP, 70-75% RH) was “ca. 0.46 % w/w” and the Moisture uptake ([2]; lot 20/45/006-FP, 75-80% RH) was “ca. 7%”. The Moisture uptake ([2]; lot 20/45/006-FP, 80-85% RH) was “ca. 40%”, the “State of material post DVS analysis” value ([2]; lot 20/45/006-FP, likely above 80% RH) was “Complete deliquescence” and the “Irritation score on SMI testing” value [3] was “moderate”. The “Total MP (% body weight)” value [3] was 10.27 % body weight.
With `COc1ccc2[nH]cc(CCN(C)C)c2c1.O=C(O)c1ccccc1` [5MeODMT benzoate 21-01-064 A] the Crystalline character ([1]; predominantly Pattern C lots) was “Pattern C”.
For `COc1ccc2[nH]cc(CCN(C)C)c2c1.O=C(O)c1ccccc1` [5MeODMT benzoate 21-01-064 B], the Crystalline character ([1]; predominantly Pattern C lots) was “Pattern C”.
For `COc1ccc2[nH]cc(CCN(C)C)c2c1.O=C(O)c1ccccc1` [5MeODMT benzoate 21-01-064 C], the Crystalline character ([1]; predominantly Pattern E lots) was “Pattern E”.
For `COc1ccc2[nH]cc(CCN(C)C)c2c1.O=C(O)c1ccccc1` [5MeODMT benzoate 21-01-064 D], the Crystalline character ([1]; predominantly Pattern E lots) was “Pattern E”.
In the case of `COc1ccc2[nH]cc(CCN(C)C)c2c1.O=C(O)c1ccccc1` [5MeODMT benzoate 21-01-064 E (air dried 4 hours)], the Crystalline character ([1]; predominantly Pattern D lots) is reported as “Pattern D”.
For `COc1ccc2[nH]cc(CCN(C)C)c2c1.O=C(O)c1ccccc1` [5MeODMT benzoate 21-01-064 E], the Crystalline character ([1]; predominantly Pattern D lots) was “Pattern D”.
In the case of `COc1ccc2[nH]cc(CCN(C)C)c2c1.O=C(O)c1ccccc1` [5MeODMT benzoate 21-01-064 F], the Crystalline character ([1]; predominantly Pattern D lots) is reported as “Pattern D”.
For `COc1ccc2[nH]cc(CCN(C)C)c2c1.O=C(O)c1ccccc1` [5MeODMT benzoate], the “Cumulative amount (μg/cm^2)” value (ovine nasal epithelium; Time 0.0 min) was 0.00 μg/cm^2, the “Cumulative amount (μg/cm^2)” value (ovine nasal epithelium; Time 10.0 min) was 0.20 μg/cm^2 and the “Cumulative amount (μg/cm^2)” value (ovine nasal epithelium; Time 20.0 min) was 3.46 μg/cm^2. The “Cumulative amount (μg/cm^2)” value (ovine nasal epithelium; Time 30.0 min) was 9.30 μg/cm^2, the “Cumulative amount (μg/cm^2)” value (ovine nasal epithelium; Time 40.0 min) was 15.46 μg/cm^2 and the “Cumulative amount (μg/cm^2)” value (ovine nasal epithelium; Time 50.0 min) was 21.51 μg/cm^2. For the same compound, the “Cumulative amount (μg/cm^2)” value (ovine nasal epithelium; Time 60.0 min) was 27.30 μg/cm^2, the “Cumulative amount (μg/cm^2)” value (ovine nasal epithelium; Time 75.0 min) was 33.34 μg/cm^2 and the “Cumulative amount (μg/cm^2)” value (ovine nasal epithelium; Time 90.0 min) was 39.77 μg/cm^2. For the same compound, the “Permeation compared with the hydrochloride salt” value (ovine nasal epithelium; listed as 5MeODMT benzoate salt) was “higher permeation”, the “Permeation compared with the hydrochloride salt” value (ovine nasal epithelium; listed as benzoate salt) was “higher permeation across the epithelium” and the “Permeation compared with the hydrochloride salt” value (ovine nasal epithelium; listed as benzoate salt of 5MeODMT) was “higher permeation”. The “Solubility (mg · mL^1)” value ([4]; 2-MeTHF) was 31.25 mg · mL^1, the “Solubility (mg · mL^1)” value ([4]; 3-methyl-1-butanol) was 31.25 mg · mL^1 and the “Solubility (mg · mL^1)” value ([4]; Acetone) was 62.5 mg · mL^1. For the same compound, the “Solubility (mg · mL^1)” value ([4]; Chlorobenzene) was 12.5 mg · mL^1, the “Solubility (mg · mL^1)” value ([4]; IPA) was 42 mg · mL^1 and the “Solubility (mg · mL^1)” value ([4]; MEK) was 62.5 mg · mL^1. The “Solubility (mg · mL^1)” value ([4]; MeCN) was 50 mg · mL^1, the “Solubility (mg · mL^1)” value ([4]; MeOH) was 250 mg · mL^1 and the “Solubility (mg · mL^1)” value ([4]; MeOH:TBME (1:1)) was 125 mg · mL^1. For the same compound, the “Solubility (mg · mL^1)” value ([4]; Nitromethane) was 125 mg · mL^1, the “Solubility (mg · mL^1)” value ([4]; THF) was 83 mg · mL^1 and the “Solubility (mg · mL^1)” value ([4]; iPrOAc) was 12.5 mg · mL^1. The “Form/version modification on exposure to variable humidity” value [2] was “no evidence of form/version modification”, the “Stability by DVS profile compared with the hydrochloride salt” value [2] was “significantly higher” and the Maximum water uptake/loss ([2]; from 0 to 90% humidity) was roughly 0.20%. The “Irritation score on SMI testing” value [3] was “mild” and the “Total MP (% body weight)” value [3] was 7.38 % body weight.
For `COc1ccc2[nH]cc(CCN(C)C)c2c1.O=C(O)c1ccccc1` [21-01-071 C1, Pattern C], the “XRPD pattern throughout drying, Day 2” value ([5]; In vacuo at 50° C., Day 2) was “B + A”, the “XRPD pattern throughout drying, Day 3” value ([5]; In vacuo at 50° C., Day 3) was “A + B” and the “XRPD pattern throughout drying, Day 1” value ([5]; Open to atmosphere at 20 ± 2° C., Day 1) was “C + B”. The “XRPD pattern throughout drying, Day 4” value ([5]; Open to atmosphere at 20 ± 2° C., Day 4) was “C + B”, the “XRPD pattern throughout drying, Day 6” value ([5]; Open to atmosphere at 20 ± 2° C., Day 6) was “C + B” and the “XRPD pattern throughout drying, Day 8” value ([5]; Open to atmosphere at 20 ± 2° C., Day 8) was “C + B”. The “XRPD pattern throughout drying, Day 12” value ([5]; Open to atmosphere at 20 ± 2° C., Day 12) was “C + B”.
For `COc1ccc2[nH]cc(CCN(C)C)c2c1.O=C(O)c1ccccc1` [Amorphous 5MeODMT benzoate], the “Stability of the amorphous form” value [6] was “unstable and undergoes transformation to Pattern A form under all conditions studied”, the “Stability of the amorphous form” value ([6]; listed as amorphous 5MeODMT benzoate) was “will convert to Pattern A form material on standing” and the “Solid form after DVS examination (XRPD)” value ([2]; amorphous input, after DVS at 90% RH) was “concordant with Pattern A”. The Initial weight reduction ([2]; amorphous lot 21-01-078, first desorption cycle) was “ca. 1.4%”, the Weight increase ([2]; amorphous lot 21-01-078, second sorption, between 50% RH and 90% RH) was 0.2% and the Weight loss ([2]; amorphous, DVS examination) was “ca. 2%”.
With `COc1ccc2[nH]cc(CCN(C)C)c2c1.O=C(O)c1ccccc1` [Pattern B form] the Solid form stability ([5]; open to atmosphere at ca. 20° C., up to 12 days) was “stable”.
